# Laboratory results reported in US20240117303A1, “METHODS AND COMPOSITIONS FOR GENERATING HUMAN MIDBRAIN DOPAMINERGIC NEURONS FROM NEURAL PROGENITOR CELLS” (Trailhead Biosystems Inc., priority 2022, published 2024).
# “Also recorded” adds a separate entry of the source.
# Experiments:
# [1] = system: stage 1 neural stem cells; assay: HD-DoE 12-factor experiment for stage 2 recipe (first model, FIG. 5-7, 12); type: cell-based, human; settings: for impact on expression of FOXA2 / impact on expression of LMX1A: dynamic profile / model, 12 effectors; for value of FOXA2 in absence of the factor: 10,000 with all factors; for value of LMX1A in absence of the factor: 30,000 with all factors
# From the text: To further guide the differentiation of midbrain-committed neural stem cells to neural progenitor cells at stage 2, we performed an additional HD-DoE experiment. We thereby obtained additional gene regulatory models that were used for preparation of differentiation protocol. The basis of this was a 12-factor HD-DoE experiment with focus on initiation of differentiation of cells toward midbrain neural progenitor cells for an additional 3 days after termination of stage 1 treatment. Here, we focused on expression of LMX1A and FOXA2 in neural progenitor cells with low to zero expression of GBX2. LMX1A had significant high expression level in the model with value of 47888. Therefore, we used optimization setting for this gene to identify the positive factors. The factors in this experiment included SC79, MK2206, ZM336372, PD0325901, CHIR99021, A 83-01, TTNPB, AGN193109, GW3965, SR9243, Purmorphamine and GSI-XX.
# (§1) To assess the impact of elimination of each validated factor, we used dynamic profile analysis and compared the expression level of genes of interest in absence of each finalized factor while others are present.
# In the stage 2 recipe, each of the six finalized factors were removed while the other five factors were present and the expression levels of FOXA2, LMX1A and GBX2 were assessed, compared to the levels in the presence of all factors. According to the first experiment model, the absence of TTNPB lead to a rise of GBX2 expression, while the value of FOXA2 and LMX1A reduced drastically from 10,000 to 0 and 30,000 to 15,000, respectively. The absence of A 83-01 reduced the expression of FOXA2 from 10,000 to 7000, however, as expected, the value of LMX1A increased from 30,000 to 40,000. […] According to the second experiment model, the absence of BMP7 and MK2206 both reduced the level of FOXA2 while increasing the value of LMX1A, with BMP7 as the main effector that led to 0 expression of FOXA2.
# [2] = system: stage 2 neural progenitors; assay: HD-DoE 12-factor model for stage 3 recipe (FIG. 19-23, 29); type: cell-based, human
# From the text: To develop the neuronal differentiation recipes, the impact of various agonist and antagonists (effectors) on maturation of MB neural progenitors was investigated using the HD-DoE method described in Example 1. These effectors were chosen based on available literature on developmental biology, differentiation of stem cells as well as mouse and human single cell RNA-seq data from midbrain neurons at the time.
# To engineer the recipe of stage 3 of differentiation, cells were first cultured in the stage 1 and stage 2 media as described herein, then they were treated with combinations of 8 or 12 factors for 3 days and the gene expression of cells in each condition was modeled. To guide the cells towards a subtype of midbrain dopaminergic neurons that reside in Substantia Nigra pars compacta (SNc) region of the brain, neural progenitors need to be SOX6^+ (Pereira et al. (2021) Cell Rep. 37:109975 Oosterveen et al. (2021) Stem Cell Reports 16:2718-2735 Poulin et al. (2020) Trends Neurosci. 43:155-169). CORIN, NGN2 and MSX1 are other markers involved in neurogenesis of dopaminergic neurons originating from floorplate region of developing midbrain (Wang et al. (2020) Cells 9:1489; Samata et al. (2016) Nat Commun. 7:13097; Ono et al. (2007) Development 134:3213-3225; Prakash et al. (2006) J. Physiol. 575:403410).
# Therefore, we focused on maximizing expression of SOX6, CORIN, NGN2 and MSX1 in modeling experiments. One of the 12-factor models, the results of which are shown in FIG. 19, including LDN193189, AGN193109, BMP7, TTNPB, PD0325901, A8301, MHY1485, CHIR99021, XAV939, SANT-1, Purmorphamine and MK2206, provided a combination set that could maximize expression level of CORIN to more than 2000.
# To assess the impact of elimination of each validated factor identified in Example 5 for the stage 3 and stage 4 recipes, we used dynamic profile analysis and compared the expression level of genes of interest in absence of each finalized factor while others are present.
# In the stage 3 recipe, each of the finalized factors were removed in their respective models while other factors were present and the expression level of genes of interest was assessed compared to presence of all factors. When AGN193109 was excluded, level of all CORIN, KCNJ6, MSX1 and SOX6 decreased from 900 to 450, 50 to 35, 140 to 110 and 105 to 60, respectively. […] When PD0325901 was removed, expression levels of CORIN and KCNJ6 increased to 1200 and 70 while levels of MSX1 and SOX6 decreased to 105 and 20. In the absence of CHIR99021, the expression level of CORIN was again increased to 1200 while the level of KCNJ6 and MSX1 dropped to 50 and 115. […] Therefore, it was decided to include this compound in the final recipe. […] Therefore, CHIR99021 was also included in the final recipe.
# [3] = system: human pluripotent stem cells; assay: HD-DoE 13-factor experiment for stage 1 recipe, gene expression modeled after 3-day treatment; dynamic profile and factor criticality analysis; type: cell-based; settings: for impact on expression of FOXA2 / impact on expression of OTX2: 13 effectors; for expression level of LMX1A in absence of the factor / expression level of FOXA2 in absence of the factor / expression level of DMBX1 in absence of the factor / expression level of OTX2 in absence of the factor: stage 1 recipe, other four factors present; for expression level of LMX1A in absence of the factor: 300 with all five factors; for expression level of FOXA2 in absence of the factor: 600 with all five factors; for expression level of DMBX1 in absence of the factor: 3000 with all five factors; for expression level of OTX2 in absence of the factor: 12000 with all five factors
# From the text: This example utilizes a method of High-Dimensional Design of Experiments (HD-DoE), as previously described in Bukys et al. (2020) Iscience 23:101346. The method employs computerized design geometries to simultaneously test multiple process inputs and offers mathematical modeling of a deep effector/response space. The method allows for finding combinatorial signaling inputs that control a complex process, such as during cell differentiation. It allows testing of multiple plausible critical process parameters, as such parameters impact output responses, such as gene expression. Because gene expression provides hallmark features of the phenotype of, for example, a human cell, the method can be applied to identify, and understand, which signaling pathways control cell fate. In the current example, the HD-DOE method was applied with the intent to find conditions for induction of midbrain neural progenitor-expressed genes, directly from the pluripotent stem cell state.
# To develop the recipe for each stage, the impact of agonists and antagonists of multiple signaling pathways (referred to herein as “effectors”) on the expression of two sets of 53 pre-selected genes after a 3-day treatment was tested and modeled. These effectors are small molecules or proteins that are commonly used during stepwise differentiation of stem cells to specific fates. The choice of the effectors to test was based on current literature on neural induction in the midbrain region of the developing brain and differentiation of stem cells to neural progenitors.
# To test the effectors, experiments with at least 8 factors were designed that can assess the response of cells to 48 or more different combinations of effectors in a range of concentrations. To analyze the models, we focused on expression of genes expressed in the midbrain region, including OTX2, DMBX1, FOXA2, LMX1A, and on the absence of GBX2, which is a hindbrain marker. The impact of each effector on gene expression level is defined by a parameter called factor contribution that is calculated for each effector during the modeling.
# To identify the recipe of stage 1 of differentiation, cells were treated with various effectors for 3 days and the gene expression of cells was modeled. […] This model consisted of 13 factors including LDN193189, PD173074, BLU9931, Purmorphamine, SC79, MK2206, ZM336372, PD0325901, CHIR99021, XAV939, UCLA-gp130, Tofacitinib and GO 6983.
# as §1
# In the stage 1 recipe, each of the five finalized factors were removed while the other four factors were present and the expression levels of OTX2, DMBX1, FOXA2 and LMX1A was assessed compared to the levels in the presence of all five factors (FIG. 11A-B). […] Expression level of DMBX1 increased in absence of LDN193189, however values of OTX2, FOXA2 and LMX1A decreased.
# [4] = model optimized for maximum expression of FOXA2, positive impact
# [5] = stage 2 recipe, first experiment model
# [6] = model optimized for LMX1A, positive impact
# [7] = model maximizing expression of CORIN, positive regulatory impact
# [8] = model optimized for maximum expression of FOXA2, positive effect
# [9] = model optimized for MSX1, negative regulatory effect
# [10] = Purmorphamine added to the original 4 effectors, dynamic profile
# [11] = model maximizing expression of CORIN, negative impact
# [12] = model optimized for SOX6, negative impact
structure (smiles),measurement,setting,value
Cc1cccc(-c2nn(C(=S)Nc3ccccc3)cc2-c2ccnc3ccccc23)n1 [A 83-01],level of GBX2,"[1]; addition of A 83-01 at 300 nM, dynamic profile",~0
same,impact on expression of FOXA2,[1],positive impacts
same,factor contribution,[1]; [4],6.7
same,value of FOXA2 in absence of the factor,[1]; [5],7000
same,value of LMX1A in absence of the factor,[1]; [5],"40,000"
Cc1ccc(C2=CCC(C)(C)c3ccc(C#Cc4ccc(C(=O)O)cc4)cc32)cc1 [AGN193109],factor contribution,[1]; [6],< 1
same,impact on expression of KCNJ6,"[2]; dynamic profile, 12 effectors",positive impact
same,factor contribution,[2]; [7],20.3
same,factor contribution,"[2]; model optimized for maximum expression of KCNJ6, positive regulators",17
same,factor contribution,"[2]; model optimized for maximum expression of SOX6, positive impact",26.1
same,expression level of KCNJ6 in absence of the factor,"[2]; stage 3 recipe, other factors present, 50 with all factors",35
same,expression level of SOX6 in absence of the factor,"[2]; stage 3 recipe, other factors present, 105 with all factors",60
same,expression level of MSX1 in absence of the factor,"[2]; stage 3 recipe, other factors present, 140 with all factors",110
same,expression level of CORIN in absence of the factor,"[2]; stage 3 recipe, other factors present, 900 with all factors",450
O=C(O)Cc1cccc(OCCCN(Cc2cccc(C(F)(F)F)c2Cl)CC(c2ccccc2)c2ccccc2)c1 [GW3965],impact on expression of FOXA2,[1],positive impact
same,impact on expression of LMX1A,[1],positive impact
same,factor contribution,[1]; [6],5.4
same,value of FOXA2 in absence of the factor,[1]; [5],"17,000"
same,value of LMX1A in absence of the factor,[1]; [5],"10,000"
c1ccc2c(-c3cnn4cc(-c5ccc(N6CCNCC6)cc5)cnc34)ccnc2c1 [LDN193189],impact on expression of FOXA2,[3]; dynamic profile,positive impact
same,impact on expression of OTX2,[3]; dynamic profile,positive impact
same,factor contribution,[3]; [8],13.6
same,factor contribution,"[3]; model optimized for maximum expression of OTX2, positive impact, 3-day treatment",11.9
same,expression level of LMX1A in absence of the factor,[3],decreased
same,expression level of FOXA2 in absence of the factor,[3],decreased
same,expression level of DMBX1 in absence of the factor,[3],increased
same,expression level of OTX2 in absence of the factor,[3],decreased
same,impact on expression level of MSX1,"[2]; dynamic profile, 12 effectors",high negative impact
same,factor contribution,[2]; [7],high positive factor contributions
same,factor contribution,[2]; [9],19.9
c1ccc2c(Oc3nc(Nc4ccc(N5CCOCC5)cc4)c4ncn(C5CCCCC5)c4n3)cccc2c1 [Purmorphamine],impact on expression of DMBX1,[3]; OTX2-optimized setting,did not have a positive impact
same,impact on expression of LMX1A,[3]; OTX2-optimized setting,did not have a positive impact
same,expression level of DMBX1,[3]; [10],3000
same,expression level of LMX1A,[3]; [10],450
same,expression level of OTX2,[3]; [10],11000
same,impact on expression of FOXA2,[3]; dynamic profile,positive impact
same,impact on expression of OTX2,[3]; dynamic profile,did not have a positive impact
same,factor contribution,[3]; [8],22.2
same,expression level of LMX1A in absence of the factor,[3],beneficial
same,expression level of FOXA2 in absence of the factor,[3],reduction
same,expression level of DMBX1 in absence of the factor,[3],beneficial
same,expression level of OTX2 in absence of the factor,[3],beneficial
same,impact on expression of FOXA2,[1],positive effect; also recorded: positive impact
same,factor contribution,[1]; [4],15.3
same,factor contribution,[1]; negative effect on LMX1A expression levels,26.2
same,expression level of FOXA2,"[1]; without addition of Purmorphamine, dynamic profile",5000
Cc1nn(-c2ccccc2)c(C)c1/C=N/N1CCN(Cc2ccccc2)CC1 [SANT-1],factor contribution,[2]; [11],9.9
CCOC(=O)C1=C(N)Oc2ccc(Cl)cc2C1C(C#N)C(=O)OCC (centres unmarked) [SC79],factor contribution,[1]; [6],7.3
C/C(=C\c1ccc(C(=O)O)cc1)c1ccc2c(c1)C(C)(C)CCC2(C)C [TTNPB],impact on expression of LMX1A,[1],positive impact
same,factor contribution,[1]; [6],19.5
same,factor contribution,[1]; [4],10.7
same,GBX2 expression in absence of the factor,[1]; [5],rise
same,value of FOXA2 in absence of the factor,[1]; [5],0
same,value of LMX1A in absence of the factor,[1]; [5],"15,000"
same,factor contribution,[2]; [9],15.5
same,factor contribution,[2]; [12],9.5
Oc1nc(-c2ccc(C(F)(F)F)cc2)nc2c1CSCC2 [XAV939],factor contribution,[2]; [11],13.5
same,factor contribution,[2]; [9],11.2
same,factor contribution,[2]; [12],10.8
